Experimental data taken from ChEMBL document CHEMBL1201862, “PubChem BioAssay data set” (2004).
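Following 48 hours of exposure in 96-well plates, responses at five concentrations were used to interpolate endpoints linearly. GI50 = concentration required for 50% inhibition of growth.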 The source made the active and inactive calls. No stated cut-off is given here; in the data, active = GI50 up to about 1.1 µM and inactive = higher. Peptide text beside a SMILES is read from it. * marks the point of attachment. Cbz = O=C(OCc1ccccc1)*

Columns and labels:
Test in all cases: DTP human tumour cell line panel, 48 h
SR = system: SR
LOX IMVI = system: LOX IMVI
SF-539 = system: SF-539
HOP-62 = system: HOP-62
SN12C = system: SN12C
SK-MEL-5 = system: SK-MEL-5
SNB-19 = system: SNB-19
HL-60 = system: HL-60
K562 = system: K562
NCI/ADR-RES = system: NCI/ADR-RES
EKVX = system: EKVX
A549 = system: A549
OVCAR-5 = system: OVCAR-5
MOLT-4 = system: MOLT-4
TK-10 = system: TK-10
SK-MEL-28 = system: SK-MEL-28
IGROV-1 = system: IGROV-1
OVCAR-4 = system: OVCAR-4
SK-OV-3 = system: SK-OV-3
SK-MEL-2 = system: SK-MEL-2

Compound | GI50 (SR) | GI50 (LOX IMVI) | GI50 (SF-539) | GI50 (HOP-62) | GI50 (SN12C) | GI50 (SK-MEL-5) | GI50 (SNB-19) | GI50 (HL-60) | GI50 (K562) | GI50 (NCI/ADR-RES) | GI50 (EKVX) | GI50 (A549) | GI50 (OVCAR-5) | GI50 (MOLT-4) | GI50 (TK-10) | GI50 (SK-MEL-28) | GI50 (IGROV-1) | GI50 (OVCAR-4) | GI50 (SK-OV-3) | GI50 (SK-MEL-2)
O=c1c(SSc2coc3cc(F)ccc3c2=O)coc2cc(F)ccc12 | 31.3 µM (inactive) | 2.65 µM (inactive) | 28.7 µM (inactive) | 19.8 µM (inactive) | 15.2 µM (inactive) | 13.7 µM (inactive) | 43.5 µM (inactive) | 8.59 µM (inactive) | 19.9 µM (inactive) | 17.3 µM (inactive) | 21.1 µM (inactive) | 7.29 µM (inactive) | 37.8 µM (inactive) | 7.31 µM (inactive) | 35.2 µM (inactive) | 5.58 µM (inactive) | 2.95 µM (inactive) | – | – | –
Cc1cccc(Cn2c3c(c4cc(O)ccc42)C(=O)c2ccccc2C3=O)c1 | 14.2 µM (inactive) | 12.6 µM (inactive) | 5.7 µM (inactive) | 4.58 µM (inactive) | > 61 µM (inactive) | 18.3 µM (inactive) | 28 µM (inactive) | – | > 100 µM (inactive) | 6.84 µM (inactive) | 3.95 µM (inactive) | 11.3 µM (inactive) | – | > 83.6 µM (inactive) | 15.5 µM (inactive) | > 39.6 µM (inactive) | 5.13 µM (inactive) | 1.88 µM (inactive) | 3.44 µM (inactive) | > 91.2 µM (inactive)
Nc1cccc2cc(Cl)cnc12 | > 100 µM (inactive) | > 100 µM (inactive) | > 100 µM (inactive) | > 100 µM (inactive) | > 100 µM (inactive) | > 100 µM (inactive) | > 100 µM (inactive) | 22.8 µM (inactive) | > 100 µM (inactive) | > 100 µM (inactive) | > 100 µM (inactive) | > 100 µM (inactive) | > 100 µM (inactive) | 37.2 µM (inactive) | > 100 µM (inactive) | > 100 µM (inactive) | > 100 µM (inactive) | > 100 µM (inactive) | > 100 µM (inactive) | –
CCOC(=O)C(C)NC(=O)C(C)NC(=O)C(C)NC(=O)C(C)NC(=O)C(C)NC(=O)C(C)NC(=O)C(C)NC(=O)OCc1ccccc1 (centres undefined) (Cbz-AAAAAAA-OEt; configuration not given here) | > 100 µM (inactive) | > 100 µM (inactive) | > 100 µM (inactive) | > 100 µM (inactive) | > 100 µM (inactive) | > 100 µM (inactive) | > 100 µM (inactive) | > 100 µM (inactive) | > 100 µM (inactive) | > 100 µM (inactive) | > 100 µM (inactive) | > 100 µM (inactive) | > 100 µM (inactive) | > 100 µM (inactive) | > 100 µM (inactive) | > 100 µM (inactive) | > 100 µM (inactive) | > 100 µM (inactive) | > 100 µM (inactive) | –
CCCCc1cc2c(cc1O)CCC1C2CC[C@@]2(C)C1CC[C@@H]2O (some centres undefined) | 21.4 µM (inactive) | 16.6 µM (inactive) | 26.2 µM (inactive) | 28.4 µM (inactive) | 18.7 µM (inactive) | 20.8 µM (inactive) | 25.5 µM (inactive) | – | 9.38 µM (inactive) | 18.7 µM (inactive) | 14.8 µM (inactive) | 13.5 µM (inactive) | 17.7 µM (inactive) | 11.7 µM (inactive) | 18.3 µM (inactive) | 23 µM (inactive) | 22 µM (inactive) | 20.4 µM (inactive) | 16.3 µM (inactive) | 18.4 µM (inactive)
COc1ccc2c(c1)OCC1Cc3cccc(OC)c3OC21 (centres undefined) | 59.7 µM (inactive) | 45.5 µM (inactive) | > 100 µM (inactive) | > 100 µM (inactive) | > 100 µM (inactive) | 17.7 µM (inactive) | – | – | – | 31.1 µM (inactive) | 52.2 µM (inactive) | 70 µM (inactive) | > 100 µM (inactive) | 28 µM (inactive) | 40.3 µM (inactive) | – | 66.7 µM (inactive) | – | > 100 µM (inactive) | 51.3 µM (inactive)
N#Cc1c(-c2ccc([N+](=O)[O-])cc2)cc(-c2ccc(Nc3ccnc4cc(C(F)(F)F)ccc34)cc2)[nH]c1=O | > 100 µM (inactive) | > 100 µM (inactive) | > 100 µM (inactive) | > 100 µM (inactive) | > 100 µM (inactive) | > 100 µM (inactive) | 24.4 µM (inactive) | – | > 100 µM (inactive) | > 100 µM (inactive) | > 100 µM (inactive) | > 100 µM (inactive) | 21.4 µM (inactive) | > 100 µM (inactive) | 52.2 µM (inactive) | > 100 µM (inactive) | > 100 µM (inactive) | > 100 µM (inactive) | > 100 µM (inactive) | > 100 µM (inactive)
CC(C)(O)CCc1ccc(O)c2c(=O)c3c(O)c4c(cc3oc12)O[C@H]1OC=C[C@@]41O [AUSTOCYSTIN D] | 1.23 µM (inactive) | 9.31 µM (inactive) | 0.514 µM (active) | 0.147 µM (active) | 8.69 µM (inactive) | 0.0102 µM (active) | 0.148 µM (active) | – | 20 µM (inactive) | < 0.01 µM (active) | 0.255 µM (active) | 0.726 µM (active) | 0.0615 µM (active) | < 0.0106 µM (active) | < 0.01 µM (active) | 0.286 µM (active) | < 0.01 µM (active) | < 0.01 µM (active) | 0.0125 µM (active) | < 0.01 µM (active)
O=C(O)CNC(=O)c1ccc(-c2ccccc2)cc1 | > 100 µM (inactive) | > 100 µM (inactive) | > 100 µM (inactive) | > 100 µM (inactive) | > 100 µM (inactive) | > 100 µM (inactive) | > 100 µM (inactive) | > 100 µM (inactive) | > 100 µM (inactive) | > 100 µM (inactive) | > 100 µM (inactive) | > 100 µM (inactive) | > 100 µM (inactive) | > 100 µM (inactive) | > 100 µM (inactive) | > 100 µM (inactive) | > 100 µM (inactive) | – | > 100 µM (inactive) | > 100 µM (inactive)
CCNCCNC(=O)c1ccc(Br)cc1 | > 100 µM (inactive) | > 100 µM (inactive) | > 100 µM (inactive) | – | > 100 µM (inactive) | > 100 µM (inactive) | > 100 µM (inactive) | > 100 µM (inactive) | > 100 µM (inactive) | > 100 µM (inactive) | > 100 µM (inactive) | > 100 µM (inactive) | > 100 µM (inactive) | > 100 µM (inactive) | > 100 µM (inactive) | > 100 µM (inactive) | > 100 µM (inactive) | > 100 µM (inactive) | > 100 µM (inactive) | –
N#Cc1nc(CCCCCN2C(=O)c3ccccc3C2=O)oc1N | > 100 µM (inactive) | > 100 µM (inactive) | > 100 µM (inactive) | > 100 µM (inactive) | > 100 µM (inactive) | > 100 µM (inactive) | > 100 µM (inactive) | – | 17 µM (inactive) | > 100 µM (inactive) | > 100 µM (inactive) | > 100 µM (inactive) | > 100 µM (inactive) | 75.7 µM (inactive) | > 100 µM (inactive) | > 100 µM (inactive) | > 100 µM (inactive) | > 100 µM (inactive) | > 100 µM (inactive) | > 100 µM (inactive)
O=C1/C(=C/c2c(Cl)[nH]c3ccccc23)c2ccccc2N1c1ccccc1 | 3.64 µM (inactive) | 3.66 µM (inactive) | 3.7 µM (inactive) | 4.94 µM (inactive) | 6.19 µM (inactive) | 2.89 µM (inactive) | 9.84 µM (inactive) | 3.01 µM (inactive) | 4.1 µM (inactive) | 2.24 µM (inactive) | 3.16 µM (inactive) | 5.18 µM (inactive) | 12.9 µM (inactive) | 4.22 µM (inactive) | 11.2 µM (inactive) | 10.4 µM (inactive) | 4.39 µM (inactive) | – | 2 µM (inactive) | 3.36 µM (inactive)
COc1ccc2nc(-c3ccccc3)c(=O)[nH]c2c1 | > 100 µM (inactive) | > 100 µM (inactive) | > 100 µM (inactive) | > 100 µM (inactive) | > 100 µM (inactive) | > 100 µM (inactive) | > 100 µM (inactive) | > 100 µM (inactive) | > 100 µM (inactive) | > 100 µM (inactive) | > 100 µM (inactive) | > 100 µM (inactive) | > 100 µM (inactive) | > 100 µM (inactive) | > 100 µM (inactive) | > 100 µM (inactive) | > 100 µM (inactive) | – | – | –
Cc1cc(NCCCCCCCCCC[n+]2c(C)cc(N)c3ccccc32)c2ccccc2n1 | – | 0.546 µM (active) | 1.82 µM (inactive) | 4.36 µM (inactive) | 0.733 µM (active) | 0.112 µM (active) | 0.427 µM (active) | 0.0721 µM (active) | 0.0409 µM (active) | 12.6 µM (inactive) | – | 0.378 µM (active) | 4.2 µM (inactive) | 0.322 µM (active) | 1.82 µM (inactive) | 1.47 µM (inactive) | 0.419 µM (active) | 1.42 µM (inactive) | 1.11 µM (active) | 1.87 µM (inactive)
C/C=C/[C@H](O[Si](C)(C)C(C)(C)C)[C@@H](O)/C=C/C(=O)OCC | 21.1 µM (inactive) | 17.5 µM (inactive) | 23.9 µM (inactive) | 17 µM (inactive) | 23.1 µM (inactive) | 16.3 µM (inactive) | 14.3 µM (inactive) | – | 21.7 µM (inactive) | 26.8 µM (inactive) | 20.7 µM (inactive) | 30.1 µM (inactive) | 31.1 µM (inactive) | 18.6 µM (inactive) | 27.9 µM (inactive) | 16.9 µM (inactive) | 22.8 µM (inactive) | 11.9 µM (inactive) | > 10 µM (inactive) | 26.5 µM (inactive)
